Measurements as given in patent publication US20240245659A1, “Methods of Treating Cushing's Syndrome and Liver Disorders, and of Reducing Liver Toxicity of Other Drugs Administered to a Patient” (Corcept Therapeutics Incorporated, priority 2022, published 2024).

Legend:
[1] = Phase 2 Cushing's syndrome study, low-dose and high-dose groups; format: in vivo, human
Procedure: A multicenter, open-label study with two dose groups enrolled 34 patients (aged 18-80 years) with endogenous Cushing's Syndrome (CS) and impaired glucose tolerance or type 2 diabetes mellitus and/or uncontrolled or untreated hypertension. Patients with elevated AST or ALT (elevated defined as greater than 3-times the ULN) were excluded. These patients were treated with relacorilant at two dosage levels. The dosages for each group were escalated in 50-mg dose increments every 4 weeks. The low dose group received relacorilant beginning at a dose of 100 mg/day, escalating to dosages of 200 mg/day during the duration of the 12-week treatment. The high-dose group received relacorilant beginning at a dose of 250 mg/day, escalating to a dosage of 400 mg/day during the duration of the 16-week treatment. The P-values shown are the P-values for the mean change from baseline to last observation calculated from the Wilcoxon signed-rank test. The Efficacy Population includes all patients treated with relacorilant who had postbaseline data.

CYP2C8 = molecular target: T1, CYP2C8 (Homo sapiens, UniProt P10632); settings: on administration; cited from earlier work
T1 sequence (P10632 1-490): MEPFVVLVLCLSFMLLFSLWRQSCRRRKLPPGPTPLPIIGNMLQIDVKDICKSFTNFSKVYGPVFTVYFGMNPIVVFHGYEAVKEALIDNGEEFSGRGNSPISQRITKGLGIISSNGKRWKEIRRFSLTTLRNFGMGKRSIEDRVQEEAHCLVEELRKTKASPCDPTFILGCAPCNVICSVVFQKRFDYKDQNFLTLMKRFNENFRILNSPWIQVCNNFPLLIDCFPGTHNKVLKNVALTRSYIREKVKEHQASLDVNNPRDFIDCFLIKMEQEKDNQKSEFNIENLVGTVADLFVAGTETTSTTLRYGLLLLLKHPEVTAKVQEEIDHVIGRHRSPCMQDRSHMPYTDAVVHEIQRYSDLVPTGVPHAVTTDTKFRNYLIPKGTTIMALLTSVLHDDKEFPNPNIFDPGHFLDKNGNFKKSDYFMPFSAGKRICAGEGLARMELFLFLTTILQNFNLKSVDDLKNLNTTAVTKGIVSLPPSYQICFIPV

progesterone receptor = molecular target: T2, progesterone receptor (Homo sapiens, UniProt P06401); settings: cited from earlier work
T2 sequence (P06401 1-933): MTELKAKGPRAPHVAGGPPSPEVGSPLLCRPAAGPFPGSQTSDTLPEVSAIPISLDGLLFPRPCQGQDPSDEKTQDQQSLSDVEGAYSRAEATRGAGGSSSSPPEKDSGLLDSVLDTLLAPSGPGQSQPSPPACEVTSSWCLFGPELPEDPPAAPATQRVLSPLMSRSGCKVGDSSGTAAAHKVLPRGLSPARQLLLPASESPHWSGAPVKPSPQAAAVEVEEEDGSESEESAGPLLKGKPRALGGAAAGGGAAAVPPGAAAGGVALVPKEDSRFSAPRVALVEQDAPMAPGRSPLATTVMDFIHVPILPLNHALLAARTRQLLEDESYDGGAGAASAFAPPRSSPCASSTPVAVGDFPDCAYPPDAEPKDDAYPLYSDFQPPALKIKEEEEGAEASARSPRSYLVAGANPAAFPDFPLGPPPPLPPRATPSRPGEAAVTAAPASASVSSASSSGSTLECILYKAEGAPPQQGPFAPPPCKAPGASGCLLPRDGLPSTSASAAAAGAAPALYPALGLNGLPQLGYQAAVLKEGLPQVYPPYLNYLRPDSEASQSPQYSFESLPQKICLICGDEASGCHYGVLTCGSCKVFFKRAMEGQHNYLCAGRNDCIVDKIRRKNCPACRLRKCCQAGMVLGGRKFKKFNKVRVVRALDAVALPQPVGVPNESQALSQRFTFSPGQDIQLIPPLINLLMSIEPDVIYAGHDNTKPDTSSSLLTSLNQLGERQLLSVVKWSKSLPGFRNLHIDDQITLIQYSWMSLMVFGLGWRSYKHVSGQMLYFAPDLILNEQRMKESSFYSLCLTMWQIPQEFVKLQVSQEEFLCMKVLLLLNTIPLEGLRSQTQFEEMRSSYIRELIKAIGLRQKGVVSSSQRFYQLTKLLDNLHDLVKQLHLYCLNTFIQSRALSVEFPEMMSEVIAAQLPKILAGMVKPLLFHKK

[2] = Cushing's syndrome patients; cited from earlier work
[3] = molecular target: T3, glucocorticoid receptor type 2 (GR) (Homo sapiens, UniProt P04150); settings: cited from earlier work
T3 sequence (P04150 1-777): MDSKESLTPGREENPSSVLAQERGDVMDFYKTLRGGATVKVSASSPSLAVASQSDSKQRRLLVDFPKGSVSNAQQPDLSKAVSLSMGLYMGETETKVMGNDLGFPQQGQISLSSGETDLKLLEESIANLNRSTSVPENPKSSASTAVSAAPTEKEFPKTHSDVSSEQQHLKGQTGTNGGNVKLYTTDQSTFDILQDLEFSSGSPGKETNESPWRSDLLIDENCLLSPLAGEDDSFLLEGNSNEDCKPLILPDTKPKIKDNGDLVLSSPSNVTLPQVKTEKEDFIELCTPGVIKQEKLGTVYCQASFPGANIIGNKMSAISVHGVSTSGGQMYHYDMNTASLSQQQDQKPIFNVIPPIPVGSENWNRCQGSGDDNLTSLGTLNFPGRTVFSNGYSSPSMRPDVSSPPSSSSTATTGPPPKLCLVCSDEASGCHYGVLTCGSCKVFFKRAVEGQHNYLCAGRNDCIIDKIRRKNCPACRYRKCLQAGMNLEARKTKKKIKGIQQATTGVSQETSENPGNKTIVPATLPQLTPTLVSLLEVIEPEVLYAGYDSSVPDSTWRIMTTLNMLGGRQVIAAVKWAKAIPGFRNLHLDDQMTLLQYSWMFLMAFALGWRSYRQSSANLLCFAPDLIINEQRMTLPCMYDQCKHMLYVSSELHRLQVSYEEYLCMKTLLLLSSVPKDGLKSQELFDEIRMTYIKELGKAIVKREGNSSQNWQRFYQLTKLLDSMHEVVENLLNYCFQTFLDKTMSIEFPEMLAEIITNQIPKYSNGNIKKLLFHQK

CYP2C9 = CYP2C9 (Homo sapiens, UniProt P11712); settings: on administration; cited from earlier work
CYP3A4 = CYP3A4 (Homo sapiens, UniProt P08684); settings: in vivo; cited from earlier work
[4] = Phase 1 hepatic impairment study of relacorilant (moderate hepatic impairment vs matched controls); format: in vivo, human
Procedure: A phase 1, open-label, multiple-dose study included 18 subjects (18-70 years). Of these subjects, 9 subjects had moderate hepatic impairment (Child—Pugh Class B) and 9 subjects were controls with normal hepatic function matched for age, sex, and body weight.
Relacorilant was administered at a dose of 300 mg/day for 10 days under fasted conditions. Blood samples for pharmacokinetic (PK) analysis were collected before dosing on Day 1 and from before dosing on Day 10 through 144 hours after the last dose of study drug (Day 16).
Subjects with moderate hepatic impairment were well matched for age, sex, and body weight Mean total Child-Pugh score of 7.9 (range: 7-9) in subjects with moderate hepatic impairment. Liver function was assessed by measurements of alanine aminotransferase (ALT) and aspartate aminotransferase (AST) levels.

[5] = via CYP3A and carbonyl reductase; cited from earlier work

Chain of CYP2C9 (P11712 whole entry): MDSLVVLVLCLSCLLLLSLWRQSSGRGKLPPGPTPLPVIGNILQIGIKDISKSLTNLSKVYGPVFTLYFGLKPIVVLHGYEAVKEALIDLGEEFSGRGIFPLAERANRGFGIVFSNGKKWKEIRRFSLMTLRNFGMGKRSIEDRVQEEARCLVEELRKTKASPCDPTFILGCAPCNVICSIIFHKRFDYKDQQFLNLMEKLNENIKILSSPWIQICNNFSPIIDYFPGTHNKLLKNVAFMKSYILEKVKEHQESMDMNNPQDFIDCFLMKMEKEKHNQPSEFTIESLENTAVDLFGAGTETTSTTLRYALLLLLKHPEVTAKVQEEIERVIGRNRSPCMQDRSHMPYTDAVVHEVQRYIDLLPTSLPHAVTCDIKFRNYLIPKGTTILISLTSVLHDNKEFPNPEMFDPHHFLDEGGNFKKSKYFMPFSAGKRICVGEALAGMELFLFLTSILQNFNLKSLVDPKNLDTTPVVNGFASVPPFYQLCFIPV
Chain of CYP3A4 (P08684 whole entry): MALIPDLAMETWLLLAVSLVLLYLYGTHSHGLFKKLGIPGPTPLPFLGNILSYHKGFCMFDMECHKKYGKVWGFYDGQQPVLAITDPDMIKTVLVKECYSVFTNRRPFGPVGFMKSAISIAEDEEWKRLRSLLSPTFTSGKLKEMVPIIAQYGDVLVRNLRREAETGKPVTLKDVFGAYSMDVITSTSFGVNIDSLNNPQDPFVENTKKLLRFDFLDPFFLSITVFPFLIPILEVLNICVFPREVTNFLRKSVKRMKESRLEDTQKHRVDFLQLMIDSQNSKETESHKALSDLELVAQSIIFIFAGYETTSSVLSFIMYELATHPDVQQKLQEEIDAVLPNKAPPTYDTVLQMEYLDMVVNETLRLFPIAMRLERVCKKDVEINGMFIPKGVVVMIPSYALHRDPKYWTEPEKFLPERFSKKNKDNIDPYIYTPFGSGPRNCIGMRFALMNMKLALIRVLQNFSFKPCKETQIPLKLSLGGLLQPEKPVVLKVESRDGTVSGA

change in LFTs, baseline to last observation ([1]; both dose groups (100-200 mg/day 12 weeks; 250-400 mg/day 16 weeks)): Reductions | change in LFTs, high-dose group compared with low-dose group ([1]; high-dose group 250-400 mg/day, 16 weeks): greater reductions | pharmacokinetic difference, moderate hepatic impairment vs matched controls ([4]; 300 mg/day for 10 days, fasted): No apparent difference | relacorilant exposures (area under the curve and maximum plasma concentration) across both groups ([4]; moderate hepatic impairment vs matched controls): largely overlapped
Compound: Cn1cc(S(=O)(=O)N2CCC3=Cc4c(cnn4-c4ccc(F)cc4)C[C@]3(C(=O)c3cc(C(F)(F)F)ccn3)C2)cn1 [relacorilant, (R)-(1-(4-fluorophenyl)-6-((1-methyl-1H-pyrazol-4-yl)sulfonyl)-4,4a,5,6,7,8-hexahydro-1H-pyrazolo[3,4-g]isoquinolin-4a-yl)(4-(trifluoromethyl)pyridin-2-yl)methanone]
normalization of ALT in patients with abnormal ALT values at baseline ([1]; Cushing's syndrome patients): 2 of 4 | CYP2C8 inhibition (CYP2C8): does not result in clinically significant inhibition | affinity for the progesterone receptor (progesterone receptor): lacks affinity | antiprogesterone effects or drug-induced hypokalemia [2]: without antiprogesterone effects or drug-induced hypokalemia | effect on hypertension and hyperglycemia [2]: clinically meaningful improvement | other cortisol-excess-related comorbidities (hypercoagulopathy, cognitive function, mood, quality of life) [2]: Improvement | binding to GR [3]: binds | CYP2C9 inhibition (CYP2C9): does not result in clinically significant inhibition | CYP3A4 inhibition (CYP3A4): strong CYP3A4 inhibitor | change in mean liver function tests (ALT, AST) ([4]; patients with moderate hepatic impairment, 300 mg/day for 10 days, fasted, baseline to Day 16): Reductions | route of elimination [5]: primarily hepatic
